Experimental data reported in patent EP3375430A1, “FRAGRANCE COMPOSITIONS” (Takasago International Corporation, priority 2017, dated 2018).

What was measured:
[1] = Amount of fragrance ingredients retained on paper blotter after evaporation (ethanol extraction, GC-MS); type: physicochemical
How it was run: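 100 µL of fragrance formulation applied to paper blotters kept at 32°C open to air; at each time three blotters extracted 1 h in ethanol with methyl decanoate internal standard and analysed by GC-MS (HP-5MS, 50–280°C). Amounts averaged over triplicates and expressed as percent of time-zero level.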

[2] = Headspace concentration of fragrance ingredients over blotter (thermal desorption GC-MS); type: physicochemical;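 on headspace concentration in composition C1 compared to control EdT1: C1 is an invention composition and EdT1 a conventional EdT of fragrance TAK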
How it was run: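 Fragrance (100µL) applied to a 10 cm perfumers' blotter held on a 32°C hot plate, equilibrated 5 min; headspace drawn through Tenax TA tubes at 17mL/min until 280mL collected, repeated at later sampling times. Tubes thermally desorbed splitless onto HP-5MS column, GC-MS detection, mass range 35 to 350.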

SMILES: CC(=O)OC1CCCCC1C(C)(C)C (centres unmarked) [Verdox™, (2-tert-butylcyclohexyl) acetate]
- amount of fragrance ingredient retained on blotter (percentage of the initial amount) ([1]; Table 3, fragrance TAK in C1, 15 min, 32°C): 80%
- amount of fragrance ingredient retained on blotter (percentage of the initial amount) ([1]; Table 3, fragrance TAK in C1, 60 min, 32°C): 62%
- amount of fragrance ingredient retained on blotter (percentage of the initial amount) ([1]; Table 3, fragrance TAK in C1, 120 min, 32°C): 39%
- amount of fragrance ingredient retained on blotter (percentage of the initial amount) ([1]; Table 3, fragrance TAK in C1, 240 min, 32°C): 18%
- amount of fragrance ingredient retained on blotter (percentage of the initial amount) ([1]; Table 3, fragrance TAK in C1, 480 min, 32°C): 2%
- amount of fragrance ingredient retained on blotter (percentage of the initial amount) ([1]; Table 3, fragrance TAK in EdT1, 15 min, 32°C): 70%
- amount of fragrance ingredient retained on blotter (percentage of the initial amount) ([1]; Table 3, fragrance TAK in EdT1, 60 min, 32°C): 29%
- amount of fragrance ingredient retained on blotter (percentage of the initial amount) ([1]; Table 3, fragrance TAK in EdT1, 120 min, 32°C): 2%
- amount of fragrance ingredient retained on blotter (percentage of the initial amount) ([1]; Table 3, fragrance TAK in EdT1, 240 min, 32°C): <1%
- amount of fragrance ingredient retained on blotter (percentage of the initial amount) ([1]; Table 3, fragrance TAK in EdT1, 480 min, 32°C): 1%
- amount of fragrance ingredient retained on blotter (percentage of the initial amount) ([1]; Table 3, fragrance TAK in EdT1 or C1, T0, set at 100% (normalisation)): 100%
- amount of fragrance ingredient retained on blotter (percentage of the initial amount) ([1]; Table 4, fragrance TAK in C2, 15 min, 32°C): 92%
- amount of fragrance ingredient retained on blotter (percentage of the initial amount) ([1]; Table 4, fragrance TAK in C2, 480 min, 32°C): 3%
- amount of fragrance ingredient retained on blotter (percentage of the initial amount) ([1]; Table 4, fragrance TAK in EdT1, 15 min, 32°C): 74%
- amount of fragrance ingredient retained on blotter (percentage of the initial amount) ([1]; Table 4, fragrance TAK in EdT1, 480 min, 32°C): <1%
- amount of fragrance ingredient retained on blotter (percentage of the initial amount) ([1]; Table 4, fragrance TAK in EdT1 or C2, T0, set at 100% (normalisation)): 100%
- amount of fragrance ingredient retained on blotter (percentage of the initial amount) ([1]; Table 5, fragrance TAK in C3, 15 min, 32°C): 83%
- amount of fragrance ingredient retained on blotter (percentage of the initial amount) ([1]; Table 5, fragrance TAK in C3, 60 min, 32°C): 64%
- amount of fragrance ingredient retained on blotter (percentage of the initial amount) ([1]; Table 5, fragrance TAK in C3, 120 min, 32°C): 44%
- amount of fragrance ingredient retained on blotter (percentage of the initial amount) ([1]; Table 5, fragrance TAK in C3, 240 min, 32°C): 27%
- amount of fragrance ingredient retained on blotter (percentage of the initial amount) ([1]; Table 5, fragrance TAK in C3, 480 min, 32°C): 3%
- amount of fragrance ingredient retained on blotter (percentage of the initial amount) ([1]; Table 5, fragrance TAK in C3, 1440 min, 32°C): <1%
- amount of fragrance ingredient retained on blotter (percentage of the initial amount) ([1]; Table 5, fragrance TAK in EdT1, 15 min, 32°C): 70%
- amount of fragrance ingredient retained on blotter (percentage of the initial amount) ([1]; Table 5, fragrance TAK in EdT1, 60 min, 32°C): 27%
- amount of fragrance ingredient retained on blotter (percentage of the initial amount) ([1]; Table 5, fragrance TAK in EdT1, 120 min, 32°C): 2%
- amount of fragrance ingredient retained on blotter (percentage of the initial amount) ([1]; Table 5, fragrance TAK in EdT1, 240 min, 32°C): <1%
- amount of fragrance ingredient retained on blotter (percentage of the initial amount) ([1]; Table 5, fragrance TAK in EdT1, 480 min, 32°C): 1%
- amount of fragrance ingredient retained on blotter (percentage of the initial amount) ([1]; Table 5, fragrance TAK in EdT1, 1440 min, 32°C): <1%
- amount of fragrance ingredient retained on blotter (percentage of the initial amount) ([1]; Table 5, fragrance TAK in EdT1 or C3, T0, set at 100% (normalisation)): 100%
- amount of fragrance ingredient retained on blotter (percentage of the initial amount) ([1]; Table 6, fragrance TAK in C4, 15 min, 32°C): 83%
- amount of fragrance ingredient retained on blotter (percentage of the initial amount) ([1]; Table 6, fragrance TAK in C4, 60 min, 32°C): 64%
- amount of fragrance ingredient retained on blotter (percentage of the initial amount) ([1]; Table 6, fragrance TAK in C4, 120 min, 32°C): 36%
- amount of fragrance ingredient retained on blotter (percentage of the initial amount) ([1]; Table 6, fragrance TAK in C4, 240 min, 32°C): 18%
- amount of fragrance ingredient retained on blotter (percentage of the initial amount) ([1]; Table 6, fragrance TAK in C4, 480 min, 32°C): 3%
- amount of fragrance ingredient retained on blotter (percentage of the initial amount) ([1]; Table 6, fragrance TAK in EdT1, 15 min, 32°C): 70%
- amount of fragrance ingredient retained on blotter (percentage of the initial amount) ([1]; Table 6, fragrance TAK in EdT1, 60 min, 32°C): 29%
- amount of fragrance ingredient retained on blotter (percentage of the initial amount) ([1]; Table 6, fragrance TAK in EdT1, 120 min, 32°C): 2%
- amount of fragrance ingredient retained on blotter (percentage of the initial amount) ([1]; Table 6, fragrance TAK in EdT1, 240 min, 32°C): <1%
- amount of fragrance ingredient retained on blotter (percentage of the initial amount) ([1]; Table 6, fragrance TAK in EdT1, 480 min, 32°C): 1%
- amount of fragrance ingredient retained on blotter (percentage of the initial amount) ([1]; Table 6, fragrance TAK in EdT1 or C4, T0, set at 100% (normalisation)): 100%
- amount of fragrance ingredient retained on blotter (percentage of the initial amount) ([1]; Table 9, fragrance COM1 in C5, T0 + 15 min): 75.1%
- amount of fragrance ingredient retained on blotter (percentage of the initial amount) ([1]; Table 9, fragrance COM1 in C5, T0 + 480 min): 1.9%
- amount of fragrance ingredient retained on blotter (percentage of the initial amount) ([1]; Table 9, fragrance COM1 in C5, T0 +1440 min): <1%
- amount of fragrance ingredient retained on blotter (percentage of the initial amount) ([1]; Table 9, fragrance COM1 in C6, T0 + 15 min): 66.4%
- amount of fragrance ingredient retained on blotter (percentage of the initial amount) ([1]; Table 9, fragrance COM1 in C6, T0 + 480 min): 1.7%
- amount of fragrance ingredient retained on blotter (percentage of the initial amount) ([1]; Table 9, fragrance COM1 in C6, T0 +1440 min): 1.0%
- amount of fragrance ingredient retained on blotter (percentage of the initial amount) ([1]; Table 9, fragrance COM1 in EdT2, C5 or C6, T0, set at 100% (normalisation)): 100%
- amount of fragrance ingredient retained on blotter (percentage of the initial amount) ([1]; Table 9, fragrance COM1 in EdT2, T0 + 15 min): 61.7%
- amount of fragrance ingredient retained on blotter (percentage of the initial amount) ([1]; Table 9, fragrance COM1 in EdT2, T0 + 480 min): 3.7%
- amount of fragrance ingredient retained on blotter (percentage of the initial amount) ([1]; Table 9, fragrance COM1 in EdT2, T0 +1440 min): 2.90%
- headspace concentration in composition C8 compared to control EdT4 ([2]; COM1 dosed at 20 wt%, up to 8 hours, Figures 8 to 10): significantly higher
- headspace concentration in composition C1 compared to control EdT1 ([2]; fragrance TAK, T0 + 4h, Figure 3): significantly greater
- headspace concentration in composition C14 compared to control EdT1 ([2]; fragrance TAK, T0+4h and T0+8h, Figures 17 and 18): significantly greater
- headspace concentration in composition C15 compared to control EdT1 ([2]; fragrance TAK, T0+4h and T0+8h, Figures 20 and 21, difference significant for linalool, linalyl acetate and Verdox™): greater
- headspace concentration in composition C1 compared to control EdT1 ([2]; fragrance TAK, T0 + 8h, Figure 4): much greater
- headspace concentration in composition C1 compared to control EdT1 ([2]; fragrance TAK, after 1 hour, Figure 2): greater
